The test system of the data set is participants with primary biliary cholangitis. As to the kind of experiment: NCT04526665 (ELATIVE) double-blind, placebo-controlled phase 3 clinical trial. Type of data set: in vivo, human. The method, then: Participants aged 18 to 75 years, who had been diagnosed with primary biliary cholangitis according to established criteria, were recruited at 82 sites in 14 countries. Inclusion criteria were an alkaline phosphatase level of ≥1.67 times the upper limit of the normal range (ULN), and a total bilirubin level of ≤2 times the ULN. Prior to screening, eligible participants had received 13 to 15 mg/kg ursodeoxycholic acid treatment per day for at least 12 months (stable dose for at least 3 months) or were intolerant to ursodeoxycholic acid (no treatment for at least 3 months).
In this double-blind, placebo-controlled, phase 3 trial, participants with an inadequate response or intolerance to ursodeoxycholic acid were randomized 2:1 to receive elafibranor 80 mg or placebo once daily. Participants receiving stable doses of ursodeoxycholic acid for at least three months prior to enrollment continued their treatment regimen throughout the trial. The overall double-blind treatment period consisted of two parts. In part one, all randomized participants received a minimum of 52 weeks of double-blind treatment. In part two, participants continued to receive double-blind treatment beyond Week 52 in a variable treatment period until all participants had completed their Week 52 assessment or until a maximum treatment duration of 104 weeks, whichever came first. The first database lock occurred after the last participant completed their Week 52 visit in the double-blind period. At the end of the double-blind period (lasting 52 to 104 weeks), participants could optionally enter an open-label extension where they would receive elafibranor 80 mg for up to five years.
The primary endpoint of Study NCT04526665 was response to treatment in the intent-to-treat population at Week 52, defined as ALP<1.67×ULN, TB≤ULN, and ALP decrease ≥15% from baseline. The primary endpoint was also analyzed according to baseline alkaline phosphatase levels of ≤3 times versus >3 times the ULN.
From September 2020 through May 2023, 161 participants were randomly assigned to receive elafibranor 80 mg (108 participants) or placebo (53 participants); these participants made up the intent-to-treat (ITT) and safety populations.

Structures are written as SMILES.

Take `CSc1ccc(C(=O)C=Cc2cc(C)c(OC(C)(C)C(=O)O)c(C)c2)cc1` [elafibranor, 2-(2,6-dimethyl-4-{3-[4-(methylsulfanyl)phenyl]-3-oxoprop-1-en-1-yl}phenoxy)-2-methylpropanoic acid]: for the setting “80 mg daily”, the “efficacy in baseline ALP >1.67×ULN and ≤3×ULN relative to baseline ALP >3×ULN” value is recorded as “more than 3 times”. The “Primary endpoint met at week 52, n (%)” value is 46 (70.8) n (%) (1.67 ULN < ALP ≤ 3 ULN, ITT Analysis Set, n=65) and 9 (20.9) n (%) (ALP > 3 ULN, ITT Analysis Set, n=43). Further, the “Response according to Paris I criteria: Primary endpoint met at week 52, n (%)” value (ALP <3×ULN, AST <2×ULN and TB ≤1 mg/dL, ITT Analysis Set, n=106) is reported as 73 (68.9) n (%). Further, the “safety and tolerability in patients” value (PBC patients) was “safe and well-tolerated”. For the same molecule, where the note is “Week 52, ITT Analysis Set”, the “Odds Ratio of response (elafibranor vs placebo), Paris I criteria” value is on record as 2.852. The “Proportion of responders (Paris I criteria)” value (Week 52, ITT Analysis Set) came out at 0.689. Besides, the “Risk difference (Paris I response, elafibranor vs placebo)” value (Week 52, ITT Analysis Set) is on record as 0.220. Further, the “difference in Paris I response vs placebo” value (Week 52, ITT Analysis Set) was 22.0%. For the same molecule, the “participants with response based on ALP<3×ULN, AST<2×ULN and TB≤1 mg/dl (Paris I)” value (Week 52, ITT Analysis Set, 73/106) was determined as 68.9%. The “complete normalization of alkaline phosphatase at Week 52, difference vs placebo” value (all participants, Week 52) was determined as 15%. The “complete normalization of alkaline phosphatase at Week 52, odds ratio vs placebo” value (all participants, Week 52, 95% CI 2.8 to infinity) is listed as “infinity”. Further, the “complete normalization of alkaline phosphatase at Week 52, % of participants” value (all participants, elafibranor 80 mg once daily, Week 52) was determined as 15%. Besides, the “complete normalization of alkaline phosphatase at Week 52, % of patients” value is listed as 4.7% (baseline ALP >3 times the ULN) and 21.5% (baseline ALP ≤3 times the ULN). Also, the “participants who met the primary endpoint (ALP<1.67×ULN, TB≤ULN, ALP decrease ≥15%)” value is on record as 20.9% (baseline ALP >3 times the ULN (43 participants), Week 52) and 70.8% (baseline ALP ≤3 times the ULN (65 participants), Week 52). For the same molecule, the “frequency of ALP normalization relative to other participants (FIG. 4)” value (baseline ALP more than 1.67×ULN and at most 2×ULN vs others, Week 52) is given as “at least 4 times”. Moreover, the “participants with a biochemical response at Week 52 (FIG. 3)” value reads like this: (baseline ALP more than 1.67×ULN and at most 2.5×ULN) “more than 80%”; (baseline ALP more than 2.5×ULN and at most 3×ULN) “more than 50%”; (baseline ALP more than 3×ULN) “less than 23%”. Also, the “biochemical response and ALP normalization rates by baseline ALP (FIGS. 3 to 5)” value (baseline ALP ≤3 ULN versus higher baseline ALP) was “higher biochemical response and ALP normalization rates”. Moreover, the “reductions in alkaline phosphatase levels over time” value (baseline through Week 4, sustained significantly lower than placebo through Week 52) is reported as “Rapid reductions”. Further, the “reduction in plasma ALP levels from baseline compared to placebo” value (treatment with elafibranor vs placebo) was “statistically significant reduction”.
